Reference: patent publication US4745124A, “Orally effective anti-hypertensive agents” (priority 1983, dated 1988)
Values joined by “and” are separate entries in the source; they are usually repeats but may differ in a detail not shown here. Identical values can stand only once.

Legend:
[1] = target: T1, angiotensin converting enzyme (human urinary ACE) (Homo sapiens, UniProt P12821); assay: ACE activity assay, I50 (Example 216A); format: biochemical; conditions: human urinary ACE; Benzoyl-GlyHisLeu 1×10^-4 M; Hepes pH 8.0; 37° C; in vitro; read-out: I50
T1 construct: ACE purified from human urine; from tissue; host or cells: human urine (ultrafiltration and Sephacryl S-200, first eluting peak; prepared as in Ryan et al., Tissue and Cell 10, 555 (1978))
T1 sequence (P12821 30-1232 limits assumed): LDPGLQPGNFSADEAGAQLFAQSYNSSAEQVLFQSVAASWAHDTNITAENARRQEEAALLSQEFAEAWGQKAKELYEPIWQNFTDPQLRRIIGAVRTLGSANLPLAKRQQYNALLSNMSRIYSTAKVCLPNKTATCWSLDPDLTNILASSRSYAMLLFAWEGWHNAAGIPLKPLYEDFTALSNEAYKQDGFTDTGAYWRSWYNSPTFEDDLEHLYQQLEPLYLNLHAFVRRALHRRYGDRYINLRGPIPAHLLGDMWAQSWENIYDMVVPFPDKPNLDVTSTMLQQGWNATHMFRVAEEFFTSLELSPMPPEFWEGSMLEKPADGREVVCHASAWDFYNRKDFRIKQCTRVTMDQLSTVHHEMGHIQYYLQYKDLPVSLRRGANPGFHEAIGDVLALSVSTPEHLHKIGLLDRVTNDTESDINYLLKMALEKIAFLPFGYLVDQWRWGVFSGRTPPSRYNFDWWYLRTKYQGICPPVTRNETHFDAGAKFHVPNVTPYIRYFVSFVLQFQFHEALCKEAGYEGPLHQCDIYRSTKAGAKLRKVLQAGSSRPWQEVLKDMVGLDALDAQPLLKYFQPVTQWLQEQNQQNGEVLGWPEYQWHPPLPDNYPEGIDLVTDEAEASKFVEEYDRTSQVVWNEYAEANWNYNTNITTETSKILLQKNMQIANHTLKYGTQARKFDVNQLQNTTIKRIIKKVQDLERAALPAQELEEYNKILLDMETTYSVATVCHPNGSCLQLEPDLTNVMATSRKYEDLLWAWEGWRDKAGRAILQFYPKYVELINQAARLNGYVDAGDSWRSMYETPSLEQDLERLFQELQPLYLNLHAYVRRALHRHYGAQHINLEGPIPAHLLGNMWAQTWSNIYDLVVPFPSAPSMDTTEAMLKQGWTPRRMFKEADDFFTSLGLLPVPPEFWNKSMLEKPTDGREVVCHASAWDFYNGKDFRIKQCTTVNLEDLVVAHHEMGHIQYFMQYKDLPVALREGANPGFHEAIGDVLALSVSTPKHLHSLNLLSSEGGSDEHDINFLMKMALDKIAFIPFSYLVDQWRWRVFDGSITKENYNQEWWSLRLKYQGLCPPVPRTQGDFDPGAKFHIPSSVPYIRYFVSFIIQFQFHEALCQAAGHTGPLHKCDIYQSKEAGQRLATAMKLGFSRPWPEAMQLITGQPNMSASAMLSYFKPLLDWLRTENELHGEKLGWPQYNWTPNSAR

[2] = resistance of thioester compounds to alkaline hydrolysis; format: physicochemical
Text: Therefore the observed inhibitory effects cannot be accounted for by postulating spontaneous hydrolysis of the thioester bond to regenerate the free sulfhydryl group.

[3] = test system: serum ACE; assay: oral effectiveness: intrinsic serum ACE activity in rats; format: in vivo, female Sprague-Dawley rat; conditions: oral 1 mg/kg
Procedure: B. In certain experiments, as identified, an alternative assay system was employed using [^3 H]-HipGlyGly as substrate as described by Ryan, J. W., et al., Biochem. J. 167 501 (1977).
Female Sprague-Dawley rats, approximately 250 g weight, were fasted overnight and then administered either 0.5 ml of saline, via stomach tube, or 0.5 ml saline containing compound (I) at a dose of 1 mg per kg of body weight. At timed intervals the rats were beheaded using a guillotine and 3 ml-5 ml blood was collected. The sera were assayed for intrinsic ACE activity, using the assay of Example 216B.

[4] = test system: serum ACE; assay: oral effectiveness: intrinsic serum ACE activity in unanesthetized rabbits; format: in vivo; conditions: oral 1 mg, about 1 kg rabbit
Procedure: A. ACE activity assay. For most experiments described herein, the enzyme ACE was assayed in 0.05M Hepes buffer, pH 8.0 containing 0.1M NaCl and 0.75M Na2 SO4. The substrate employed was Benzoyl-GlyHisLeu at a final concentration of 1×10^-4 M, together with about 130,000 cpm of [^3 H]-Benzoyl GlyHisLeu (25 Ci/mmole). Enzyme was diluted in the above buffer such that 40 μl buffered enzyme was capable of hydrolyzing 13% of substrate in a 15-minute incubation at 37° C. To initiate the assay, 40 μl of enzyme and 10 μl of water or inhibitor dissooved in water were preincubated for five minutes at 37° C. Substrate, 50 μl, was then added to initiate reaction and the solution was incubated for 15 minutes at 37° C. To terminate the reaction, 1 ml of 0.1M HCl was added, following which 1 ml of ethyl acetate was added. The mixture was agitated on a rotary mixer and centrifuged briefly to separate the phases.
Young, unanesthetized rabbits, fasted overnight, weighing about 1 kg, were given compound (I). The compound was dissolved in water at alkaline pH, 1 mg of (I) in 3 ml water containing 50 μl 1N NaHCO3. Blood samples, 0.5 ml, were collected at timed intervals from a marginal ear vein. Sera obtained after clot formation and centrifugation were assayed for intrinsic ACE activity, using 1 μl in the assay of Example 216A.

[5] = test system: pressor effects of angiotensin II; assay: oral: blood pressure response to angiotensin II in anesthetized rats; format: in vivo, rat; conditions: 2 or 5 mg/kg, angiotensin II 80 ng
Procedure: Rats (210-290 g body weight) were fasted overnight and then anesthetized with intraperitoneal pentobarbital, 50-60 mg/kg. Tracheostomy was performed and the animals were ventilated mechanically. A cannula was inserted into a femoral vein for injection of angiotensin I or II, and a second cannula was inserted into a common carotid artery for direct measurement of arterial blood pressure. Heparin, 1,000 units, was injected via the femoral vein to prevent coagulation. Blood pressure was measured with a pressure transducer connected to a polygraph. The rats were injected with 80 ng of angiotensin I or angiotensin II in 20 μl of 0.9 g % NaCl; an amount of antiotensin I or II sufficient to raise mean arterial blood pressure by 27-40 mm Hg. After the responsiveness of a given rat to angiotensins I and II was established, compound (I), at 2 or 5 mg/kg (drug dissolved in 0.5 ml of H2 O plus 10 μl of 1N NaHCO3), was given via a stomach tube. At timed intervals, the effects of 80 ng of angiotensin I or angiotensin II on mean arterial blood pressure were tested.
Rats were prepared as described in Example 222. Compound (II) [N-benzoyl-L-phenylalanylthiopropanoyl)-L-proline] was given orally, via a stomach tube, at a dose of 12 mg/kg or 20 mg/kg. Compound (II) was dissolved in 0.5 ml of H2 O plus 10 μl of 1N NaHCO3. […]

IC50 [1]: 40 nM and 10 nM
hydrolysis at pH 9.5 in 1M NaHCO3 ([2]; pH 9.5, 1M NaHCO3): not hydrolyzed
SMILES: C[C@H](CSC(=O)C(Cc1ccccc1)NC(=O)c1ccccc1)C(=O)N1CCC[C@H]1C(=O)O (stereo partly drawn) [Compound (I), 2-benzoylphenylalanylthio-2-D-methylpropanoyl-L-proline]
resistance to alkaline hydrolysis [2]: surprisingly resistant to alkaline hydrolysis
Serum ACE activity ([3]; 5 min, run 1): 100% of Control
Serum ACE activity ([3]; 5 min, run 2): 100% of Control
Serum ACE activity ([3]; 10 min, run 1): 65% of Control
Serum ACE activity ([3]; 10 min, run 2): 52% of Control
Serum ACE activity ([3]; 30 min, run 1): 50% of Control
Serum ACE activity ([3]; 30 min, run 2): 45% of Control
Serum ACE activity ([3]; 60 min, run 1): 50% of Control
Serum ACE activity ([3]; 60 min, run 2): 42% of Control
Serum ACE activity ([3]; 90 min, run 1): 20% of Control
Serum ACE activity ([3]; 90 min, run 2): 20% of Control
Serum ACE activity ([4]; 0.167 h, Rabbit 1): 7% of Control
Serum ACE activity ([4]; 0.167 h, Rabbit 2): 11% of Control
Serum ACE activity ([4]; 0.33 h, Rabbit 1): 8% of Control
Serum ACE activity ([4]; 0.33 h, Rabbit 2): 9% of Control
Serum ACE activity ([4]; 0.5 h, Rabbit 1): 7% of Control
Serum ACE activity ([4]; 0.5 h, Rabbit 2): 8% of Control
Serum ACE activity ([4]; 1.0 h, Rabbit 1): 20% of Control
Serum ACE activity ([4]; 1.0 h, Rabbit 2): 44% of Control
Serum ACE activity ([4]; 1.5 h, Rabbit 1): 14% of Control
Serum ACE activity ([4]; 1.5 h, Rabbit 2): 55% of Control
Serum ACE activity ([4]; 2.0 h, Rabbit 1): 11% of Control
Serum ACE activity ([4]; 2.0 h, Rabbit 2): 44% of Control
Serum ACE activity ([4]; 2.5 h, Rabbit 1): 12% of Control
Serum ACE activity ([4]; 2.5 h, Rabbit 2): 40% of Control
Serum ACE activity ([4]; 3.0 h, Rabbit 1): 30% of Control
Serum ACE activity ([4]; 4.0 h, Rabbit 1): 23% of Control
Serum ACE activity ([4]; 5.0 h, Rabbit 1): 19% of Control
Serum ACE activity ([4]; 20.0 h, Rabbit 1): 70% of Control
effects of angiotensin II (specificity) [5]: not inhibited
